From patent US9802895B2, “Indole and benzimidazolecarboxamides as insecticides and acaricides” (BAYER CROPSCIENCE AKTIENGESELLSCHAFT, priority 2014, dated 2017) come the findings set out here.

For data set [1], the system named is mixed thrips population (Frankliniella occidentalis). Briefly: Frankliniella occidentalis spray test (FRANOC). Type of data set: in vivo. Particulars: 7 dat. The method, then:
Frankliniella occidentalis—Spray Test (FRANOC) Solvent: 7 parts by weight of dimethylformamide Emulsifier: alkylaryl polyglycol ether To produce a suitable active compound formulation, 1 part by weight of active compound is dissolved using the specified parts by weight of solvent and made up with water containing an emulsifier concentration of 1000 ppm until the desired concentration is attained. To produce further test concentrations, the preparation is diluted with emulsifier-containing water. If the addition of ammonium salts or/and penetrants is required, these are each added in a concentration of 1000 ppm to the formulation solution. Bush bean plants (Phaseolus vulgaris) are sprayed with an active compound preparation of the desired concentration. After drying, the treated plants are infected with a mixed thrips population (Frankliniella occidentalis). After the desired period of time, the plant-protective efficacy in % is determined. 100% means that no damage is evident; 0% means that the damage to the treated plant corresponds to that of the untreated control.

Data set [2] deals with caterpillars of the armyworm (Spodoptera frugiperda). As to the kind of experiment: Spodoptera frugiperda spray test (SPODFR). Type of data set: in vivo. The conditions noted are these: for efficacy: 100 g/ha, spray, after 7 days. The method, then:
Spodoptera frugiperda—Spray Test (SPODFR) Solvent: 78.0 parts by weight of acetone • • 1.5 parts by weight of dimethylformamide Emulsifier: alkylaryl polyglycol ether To produce a suitable active compound formulation, 1 part by weight of active compound is dissolved using the specified parts by weight of solvent and made up with water containing an emulsifier concentration of 1000 ppm until the desired concentration is attained. To produce further test concentrations, the preparation is diluted with emulsifier-containing water. Leaf discs of maize (Zea mays) are sprayed with an active compound formulation of the desired concentration and, after drying, populated with caterpillars of the armyworm (Spodoptera frugiperda). After 7 days, the efficacy in % is determined 100% means that all the caterpillars have been killed; 0% means that no caterpillars have been killed. Spodoptera frugiperda—Spray Test (SPODFR) Solvent: 78.0 parts by weight of acetone • • 1.5 parts by weight of dimethylformamide Emulsifier: alkylaryl polyglycol ether To produce a suitable active compound formulation, 1 part by weight of active compound is dissolved using the specified parts by weight of solvent and made up with water containing an emulsifier concentration of 1000 ppm until the desired concentration is attained. To produce further test concentrations, the preparation is diluted with emulsifier-containing water. Leaf discs of maize (Zea mays) are sprayed with an active compound formulation of the desired concentration and, after drying, populated with caterpillars of the armyworm (Spodoptera frugiperda). After the desired period of time, the efficacy in % is determined. 100% means that all the caterpillars have been killed; 0% means that no caterpillars have been killed.

Data set [3] deals with L1 larvae of the Australian sheep blowfly (Lucilia cuprina). Briefly: Lucilia cuprina test (LUCICU). The conditions noted are these: 100 ppm, after 2 days. The format is in vivo. As to the method:
Lucilia cuprina Test (LUCICU) Solvent: dimethyl sulphoxide To produce a suitable active compound formulation, 10 mg of active compound are mixed with 0.5 ml of dimethyl sulphoxide, and the concentrate is diluted with water to the desired concentration. About 20 L1 larvae of the Australian sheep blowfly (Lucilia cuprina) are transferred into a test vessel containing minced horsemeat and the active compound preparation of the desired concentration. After 2 days, the kill in % is determined 100% means that all the larvae have been killed; 0% means that none of the larvae have been killed.

Data set [4] concerns adult cat fleas (Ctenocephalides felis). Briefly: Ctenocephalides felis oral test (CTECFE). The conditions noted are these: 100 ppm, oral in cattle blood, after 2 days. The format is in vivo. As to the method: Ctenocephalides felis-Oral Test ([…]) Solvent: dimethyl sulphoxide To produce a suitable active compound formulation, 10 mg of active compound are mixed with 0.5 ml of dimethyl sulphoxide. Dilution with citrated cattle blood gives the desired concentration. About 20 unfed adult cat fleas (Ctenocephalides felis) are placed into a chamber which is closed at the top and bottom with gauze. A metal cylinder whose bottom end is closed with parafilm is placed onto the chamber. The cylinder contains the blood/active compound preparation, which can be imbibed by the fleas through the parafilm membrane. After 2 days, the kill in % is determined 100% means that all of the fleas have been killed; 0% means that none of the fleas have been killed.

Data set [5] concerns larvae of the mustard beetle (Phaedon cochleariae). As to the kind of experiment: Phaedon cochleariae spray test (PHAECO). The format is in vivo. Particulars: 100 g/ha, after 7 days. The method, then: Phaedon cochleariae—Spray Test (PHAECO)
(§1) Solvent: 78.0 parts by weight of acetone • • 1.5 parts by weight of dimethylformamide
(§2) Emulsifier: alkylaryl polyglycol ether
(§3) To produce a suitable active compound formulation, 1 part by weight of active compound is dissolved using the specified parts by weight of solvent and made up with water containing an emulsifier concentration of 1000 ppm until the desired concentration is attained. To produce further test concentrations, the preparation is diluted with emulsifier-containing water.
After 7 days, the efficacy in % is determined. 100% means that all the beetle larvae have been killed; 0% means that no beetle larvae have been killed.

The nature of data set [6]: log P by HPLC (EEC directive 79/831 Annex V.A8). The format is physicochemical. Particulars: HPLC, reversed-phase column (C18), 43° C., acidic range pH 2.7. As to the method: a) The determination of the M^+ by LC-MS in the acidic range is effected at pH 2.7, acetonitrile (contains 0.1% formic acid) and water as eluents; linear gradient from 10% acetonitrile to 95% acetonitrile, instrument: Agilent 1100 LC system, Agilent MSD system, HTS PAL. The log P values reported in the tables and Preparation Examples above were determined in accordance with EEC directive 79/831 Annex V.A8 by HPLC (High Performance Liquid Chromatography) using a reversed-phase column (C18). Temperature 43° C. The calibration is effected with unbranched alkan-2-ones (having 3 to 16 carbon atoms), for which the logP values are known.

Data set [7] relates to greenhouse red spider mite (Tetranychus urticae). As to the kind of experiment: Tetranychus urticae spray test, OP-resistant (TETRUR). Type of data set: in vivo. The conditions noted are these: for efficacy: 100 g/ha, spray, after 6 days. The method, then: Tetranychus urticae—Spray Test, OP-Resistant (TETRUR)
as §1, §2, §3
Discs of bean leaves (Phaseolus vulgaris) infested by all stages of the greenhouse red spider mite (Tetranychus urticae) are sprayed with an active compound formulation of the desired concentration.
After 6 days, the efficacy in % is determined 100% means that all the spider mites have been killed; 0% means that none of the spider mites have been killed.
Tetranychus urticae—Spray Test; OP-Resistant (TETRUR)
After the desired period of time, the efficacy in % is determined 100% means that all the spider mites have been killed; 0% means that none of the spider mites have been killed.

Data set [8] concerns adult houseflies (Musca domestica). Briefly: Musca domestica test (MUSCDO). The conditions noted are these: 100 ppm, after 2 days. The format is in vivo. The method, then: Musca domestica Test (MUSCDO) Solvent: dimethyl sulphoxide To produce a suitable active compound formulation, 10 mg of active compound are mixed with 0.5 ml of dimethyl sulphoxide, and the concentrate is diluted with water to the desired concentration. Vessels containing a sponge treated with sugar solution and the active compound preparation of the desired concentration are populated with 10 adult houseflies (Musca domestica). After 2 days, the kill in % is determined. 100% means that all of the flies have been killed; 0% means that none of the flies have been killed.

Data set [9] concerns L2 larvae of the banded cucumber beetle (Diabrotica balteata). As to the kind of experiment: Diabrotica balteata drench test (DIABBA). Type of data set: in vivo. The conditions noted are these: 8 dat. The method, then:
Diabrotica balteata—Drench Test (DIABBA) Solvent: 7 parts by weight of dimethylformamide Emulsifier: 2 parts by weight of alkylaryl polyglycol ether To produce a suitable active compound formulation, 1 part by weight of active compound is mixed with the specified amounts of solvent and emulsifier, and the concentrate is diluted with water to the desired concentration, it being necessary to include the volume of soil which is drenched in the calculation. It should be ensured that a concentration of 40 ppm of emulsifier in the soil is not exceeded. To produce further test concentrations, water is used for dilution. […] After one day, 25 L2 larvae of the banded cucumber beetle (Diabrotica balteata) are added. After 8 days, the efficacy in % is determined 100% means that all 5 plants have germinated and grown; 0% means that none of the plants has emerged.

For data set [10], the system named is engorged adult female cattle ticks (Boophilus microplus). Briefly: Boophilus microplus injection test (BOOPMI inj). Type of data set: in vivo. The conditions noted are these: assessed after 7 days. The method, then:
Boophilus microplus Injection Test (BOOPMI inj) Solvent: dimethyl sulphoxide To produce a suitable active compound formulation, 10 mg of active compound are mixed with 0.5 ml of solvent and the concentrate is diluted with solvent to the desired concentration. 1 μl of the active compound solution is injected into the abdomen of 5 engorged adult female cattle ticks (Boophilus microplus). The animals are transferred into dishes and kept in a climate-controlled room. The efficacy is assessed after 7 days by laying of fertile eggs. Eggs which are not visibly fertile are stored in a climate-controlled cabinet until the larvae hatch after about 42 days. An efficacy of 100% means that none of the ticks has laid any fertile eggs; 0% means that all the eggs are fertile.

As a reminder, the log P is a log measure of how a compound divides between an organic and an aqueous phase. A lower log P goes with lower lipophilicity. On to `Cn1c(C(=O)NC(c2ccc(Cl)c(C(F)(F)F)c2)C(F)(F)F)cc2cc(C(=O)NC3(C(N)=S)CC3)c(Cl)cc21` (stereo not shown) [I-16], for which the “% efficacy (plant-protective)” value in [1] (0.8 ppm) and in [1] (4 ppm) was 90% throughout. Moreover, the efficacy in data set [2], in data set [5] and in data set [7] was 100% each time. The “efficacy (kill in %)” value in data set [3], in data set [4] and in data set [8] was 100% throughout. Besides, the “log P” value in [6] is 3.70. Besides, the results for the “% efficacy” value in data set [9] (4 ppm) and in [9] (20 ppm) were 50% and 100%, respectively. Besides, in [10], the “efficacy (laying of fertile eggs)” value came to 100%.

Regarding `CCn1c(C(=O)NC(c2cc(Cl)cc(C(F)(F)F)c2)C(F)(F)F)cc2cc(C(=O)NC3(C(N)=S)CC3)c(Cl)cc21` (stereo not shown) [I-22], the efficacy in [2], in [5] and in data set [7] was 100% throughout. The “% efficacy” value is listed as 100% in data set [2] (SPODFR, 0.8 g/ha, 7 dat); 100% in data set [2] (SPODFR, 4 g/ha, 7 dat); 100% in data set [7] (TETRUR, 4 g/ha, 6 dat); 100% in data set [7] (TETRUR, 20 g/ha, 6 dat); 50% in [9] (4 ppm); 100% in [9] (20 ppm). The “efficacy (kill in %)” value in data set [3], in data set [4] and in data set [8] was 100% in each case. Also, in data set [6], the “log P” value was 4.11. Also, the “efficacy (laying of fertile eggs)” value in [10] was found to be 100%.

As for `CCn1c(C(=O)NC(c2cc(Cl)c(F)c(F)c2F)C(F)(F)F)cc2cc(C(=O)NC3(C(N)=S)CC3)c(Cl)cc21` (stereo not shown) [I-26], the efficacy in [2], in data set [5] and in data set [7] was 100% in each case. The “efficacy (kill in %)” value in data set [3], in data set [4] and in data set [8] was 100% in each case. For the same compound, the “log P” value in data set [6] turned out to be 3.99. In [10], the “efficacy (laying of fertile eggs)” value is listed as 100%.

Take `CCn1c(C(=O)NC(c2cc(F)c(Cl)c(Cl)c2F)C(F)(F)F)cc2cc(C(=O)NC3(C(N)=S)CC3)c(Cl)cc21` (stereo not shown) [I-27]: the efficacy in data set [2], in [5] and in data set [7] was 100% each time. Further, the “efficacy (kill in %)” value in data set [3], in [4] and in data set [8] was 100% each time. Also, the “log P” value in [6] came out at 4.28. Also, the “efficacy (laying of fertile eggs)” value in data set [10] amounted to 100%.

As for `CCn1c(C(=O)NC(c2cc(F)c(Cl)c(F)c2F)C(F)(F)F)cc2cc(C(=O)NC3(C(N)=S)CC3)c(Cl)cc21` (stereo not shown) [I-31], the efficacy in data set [2], in [5] and in data set [7] was 100% throughout. In addition, the “efficacy (kill in %)” value in data set [3], in data set [4] and in [8] was 100% each time. Further, the “log P” value in data set [6] was determined as 4.02. The “efficacy (laying of fertile eggs)” value in data set [10] stood at 100%.

Regarding `CCn1c(C(=O)NC(c2cccc(C(F)(F)F)c2)C(F)(F)F)cc2cc(C(=O)NC3(C(N)=S)CC3)c(Cl)cc21` (stereo not shown) [reference compound], in [1] (Thrips, 168 h, 0.8 ppm, read-out: % efficacy (plant-protective)), the Emax at 0.8 ppm turned out to be 60%. Also, the Emax at 4 ppm is 98% in data set [1] (Thrips, 168 h, 4 ppm, read-out: % efficacy (plant-protective)) and 70% in data set [9] (Diabrotica balteata, soil, 192 h, 4 ppm, read-out: % efficacy). In addition, in data set [2] (Spodoptera frugiperda, 168 h, SPODFR, 0.8 g/ha, 7 dat, read-out: % efficacy), the Emax at 0.8 g/ha is 33%. For the same compound, the % efficacy (mortality) at a single application rate at 4 g/ha in [2] (Spodoptera frugiperda, 168 h, SPODFR, 4 g/ha, 7 dat) was 100%. For the same compound, in data set [7] (Tetranychus urticae, 144 h, TETRUR, 4 g/ha, 6 dat, read-out: % efficacy), the Emax at 4 g/ha came to 70%. Besides, the Emax at 20 g/ha in [7] (Tetranychus urticae, 144 h, TETRUR, 20 g/ha, 6 dat, read-out: % efficacy) is 100%. Also, the Emax at 20 ppm in data set [9] (Diabrotica balteata, soil, 192 h, 20 ppm, read-out: % efficacy) was determined as 60%.
